Data published in article PMC9181982, “Biphenyl Ether Analogs Containing Pomalidomide as Small-Molecule Inhibitors of the Programmed Cell Death-1/Programmed Cell Death-Ligand 1 Interaction” (Molecules, 2022).

What was measured:
[1] = system: PD-1/PD-L1 blockade, Jurkat effector cells / CHO/TCRAct/PD-L1 cells; assay: Immune checkpoint blockade (ICB) assay (Promega): Jurkat ECs co-cultured with CHO/TCRAct/PD-L1 cells, NFAT luciferase readout; assay type: cell-based, human; conditions: cell-based PD-1/PD-L1 blockade bioassay
Protocol: In order to explore the bioactivity of the synthesized compounds, a well-recognized immune checkpoint blockade (ICB) assay was performed. In the assay, artificial T cells, the Jurkat effector cells (Jurkat ECs), i.e., the Jurkat T cells overexpressing PD-1 and luciferase-coding gene under the control of the TCR-inducible NFAT response element, are contacted with artificial antigen-presenting CHO/TCRAct/PD-L1 cells, as illustrated in [31]. The latter is the CHO cells equipped with the TCR activator molecule, which delivers activation of Jurkat ECs, and also the PD-L1 protein, which provides a negative signal towards the activation of Jurkat ECs. Upon the blockade of the PD-1/PD-L1 interaction, activation of Jurkat ECs is increased, as we have shown before for several classes of therapeutic antibodies and small molecules.
The human PD-L1-expressing CHO-K1 cells overexpressing TCR activator (CHO/TCRAct/PD-L1) cells and Jurkat ECs T cells overexpressing PD-1 and carrying a luciferase reporter gene under the control of the Nuclear Factor of Activated T cells Response Element (NFAT-RE) were obtained from Promega and cultured in an RPMI-1640 medium (Biowest, Nuaillé, France) supplemented with 10% fetal bovine serum (FBS, Biowest, Nuaillé, France) and […] L-glutamine (Biowest, Nuaillé, France). G418 (250 µg/mL, InvivoGen, San Diego, CA, USA) and Hygromycin B Gold (50 µg/mL, InvivoGen, San Diego, CA, USA) were also added to the culture medium as selection antibiotics. CAKI 2, LNCap, PC-3, and MDA-MB-231 cells were purchased from the European Collection of Authenticated Cell Cultures (ECACC) and cultured according to the provided protocol.
For the analysis of biological activity of the analyzed compounds, an immune checkpoint blockade (ICB) assay was performed. For this, the culture of Jurkat effector cells (Jurkat-ECs) and […] was carried out. The assay was performed according to the protocol described in our previous works. All the experiments were performed three times as independent experiments.
Figure 2 Bioactivity of the indicated compounds. (A,B) The activity was monitored with a cell-based immune checkpoint blockade (ICB) assay. Jurkat ECs were contacted with pre-seeded CHO/TCRAct/PD-L1 cells in the presence of the indicated concentrations of the compounds (A) or durvalumab (B) as a positive control. The cells were co-cultured for 6 h and the luminescence signal was measured following the addition of the Bio-Glo substrate. The graphs show fold induction calculated versus either DMSO-treated (for small molecules) or untreated (for durvalumab) control (ctrl) cells. The results are mean ± SD from three independent experiments. […] (C) Analysis of the expression of PD-L1 in four human cancer cell lines compared to PD-L1-overexpressing CHO/TCRAct/PD-L1 cells. (D) Analysis of the expression of PD-L1 in MDA-MB-231 cells treated with either 4 or 5 compounds for 6 or 24 h.

PD-1/PD-L1 complex = target: T1, PD-1/PD-L1 complex (Homo sapiens, UniProt Q9NZQ7); assay: HTRF (homogeneous time-resolved fluorescence) PD-1/PD-L1 binding assay (Cis-Bio); conditions: 5 nM hPD-L1, 50 nM hPD-1
T1 construct: purchased Cis-Bio
T1 sequence (Q9NZQ7 19-238 limits assumed, one chain of several): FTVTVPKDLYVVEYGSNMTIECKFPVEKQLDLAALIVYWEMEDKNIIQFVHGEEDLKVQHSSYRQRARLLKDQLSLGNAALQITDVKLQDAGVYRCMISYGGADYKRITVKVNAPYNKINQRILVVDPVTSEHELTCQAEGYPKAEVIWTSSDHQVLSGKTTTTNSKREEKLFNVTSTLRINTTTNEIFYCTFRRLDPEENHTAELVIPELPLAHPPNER
Protocol: To validate the activity toward PD-L1 of our compounds, we carried out an HTRF (homogeneous time-resolved fluorescence) experiment at two concentrations of the ligand (5 µM and 0.5 µM) (Table 1).
HTRF was carried out using a certified Cis-Bio assay according to the manufacturer’s guidelines. The experiments were carried out at 5 nM of h-L1 and 50 nM of hPD-1 in the final formulation at the 20 µL final volume in the well. To determine the half maximal inhibitory concentrations (IC50) of the tested compounds, the measurements were carried out on two individual dilution series unless stated otherwise. After mixing all the components according to the Cis-Bio protocol, the plate was left for 2 h incubation at room temperature followed by the TR-FRET measurement on a Tecan Spark 20M. […] The collected data was background-subtracted from the negative control, normalized on the positive control, averaged, and fitted with the normalized Hill’s equation to determine the IC50 value using Mathematica 12 (Princeton, NJ, USA).

PD-L1 protein = target: T2, PD-L1 protein (Homo sapiens, UniProt Q9NZQ7); assay: 1H NMR binding analysis, PD-L1 protein titrated with ligand
T2 construct: PD-L1 gene (amino acids 18–239); made in house; host or cells: E. coli BL21
T2 sequence (Q9NZQ7 18-239): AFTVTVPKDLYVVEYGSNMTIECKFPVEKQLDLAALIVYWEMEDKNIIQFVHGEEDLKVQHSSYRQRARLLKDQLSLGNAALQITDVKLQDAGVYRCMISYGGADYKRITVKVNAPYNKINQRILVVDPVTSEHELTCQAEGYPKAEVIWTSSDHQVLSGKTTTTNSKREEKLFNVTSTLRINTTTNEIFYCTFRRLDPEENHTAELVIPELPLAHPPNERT
Protocol: Apart from the HTRF assay, we performed the NMR [33, 34] binding analysis by recording the ^1H spectrum of the PD-L1 protein titrated with compound 4 (Figure 1).
The E. coli strain BL21 was transformed with a pET-21b plasmid carrying the PD-L1 gene (amino acids 18–239). The bacteria were cultured in LB at 37 °C until OD600nm of 0, 6 when the recombinant protein production was induced with 1 mM IPTG. The protein production continued overnight. The inclusion bodies were collected by centrifugation, washed twice with 50 mM Tris HCl, pH 8.0, containing 200 mM NaCl, 10 mM EDTA, 10 mM 2-mercaptoethanol, and 0.5% Triton X-100, followed by a single wash with the same buffer but with no Triton X-100. The washed inclusion bodies were resuspended overnight in 50 mM Tris HCl, pH 8.0, 6 M GuHCl, 200 mM NaCl, and 10 mM 2-mercaptoethanol and clarified with centrifugation. Refolding of PD-L1 was performed by dropwise dilution into 0.1 M Tris HCl, pH 8.0, containing 1 M L-arginine hydrochloride, 0.25 mM oxidized glutathione, and 0.25 mM reduced glutathione. The refolded protein was dialyzed three times against 10 mM Tris HCl, pH 8.0, containing 20 mM NaCl and purified by size exclusion chromatography using Superdex 75 and a dialysis buffer. The quality of the refolded protein was evaluated by SDS-PAGE and NMR.
NMR spectra were recorded in PBS, pH 7.4, containing 10% (v/v) of D2O added to the samples to provide the lock signal. Water suppression was carried out using the WATERGATE sequence. All the spectra were recorded at 300 K using a Bruker Avance 600 MHz spectrometer with the Cryo-Platform. The NMR spectrum was recorded at three different ligand/protein ratios from 0 to 10. The samples were prepared by adding small amounts of a 50 mM ligand stock solution in DMSO to the protein solution (0.20 mL) of the PD-L1 fragment at a concentration of 0.14 mM. The acquisition parameters for each spectrum were as follows: size of FID32768, number of scans: 32. The spectra were visualized using TopSpin 4.0.2. (Bruker, Billerica, MA, USA)

Cc1c(COc2cc(OCc3cccc(C#N)c3)c(C(NCCCNc3cccc4c3C(=O)N(C3CCC(=O)NC3=O)C4=O)c3nnnn3C(C)(C)C)cc2Cl)cccc1-c1ccc2c(c1)OCCO2 (centres unmarked) [compound 6, 3-((2-((1-(tert-butyl)-1H-tetrazol-5-yl)((3-((2-(2,6-dioxopiperidin-3-yl)-1,3-dioxoisoindolin-4-yl)amino)propyl)amino)methyl)-4-chloro-5-((3-(2,3-dihydrobenzo[b][1,4]dioxin-6-yl)-2-methylbenzyl)oxy)phenoxy)methyl)benzonitrile]
Promega Assay (active / not active) [1]: Not active
inhibition at 0.5 µM (PD-1/PD-L1 complex; 0.5 µM ligand, read-out: HTRF: Percentage of the Dissociated PD-1/PD-L1 Complex, 0.5 µM Ligand Conc.): 13.8%
inhibition at 5 µM (PD-1/PD-L1 complex; 5 µM ligand, read-out: HTRF: Percentage of the Dissociated PD-1/PD-L1 Complex, 5 µM Ligand Conc.): 25.9%
Protein precipitation during NMR titration (PD-L1 protein; 1H NMR titration, compound 6 at protein–ligand ratio 1:10): massive protein precipitation
Binding to PD-L1 by 1H NMR titration (PD-L1 protein; PBS pH 7.4, 300 K, protein–ligand ratios up to 1:10): does not present changes in the PD-L1 NMR protein spectra
